In PubChem BioAssay (NCI) one finds TGI and GI50 data, which are given here for eleven compounds.

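96-well plates; 48 h exposure; 5 concentrations. Endpoints by linear interpolation between flanking doses. Not reached: highest tested concentration assigned. Here, GI50 denotes the concentration required for 50% inhibition of growth. At the TGI there is no net growth.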

What all share (assay): NCI-60 cell line screen, 48 h
In experiment [1] the test system is M19-MEL melanoma.
Experiment [2] has as its system UO-31 renal.
Experiment [3] relates to SNB-19 CNS.
Experiment [4] has as its system K-562 leukemia.
In experiment [5] the test system is SK-MEL-2 melanoma.
The subject of experiment [6] is LOX IMVI melanoma.
In experiment [7] the test system is RPMI-8226 leukemia.
The subject of experiment [8] is DU-145 prostate.
The subject of experiment [9] is T-47D breast.

With `O=C1/C(=C/c2ccccc2)CN(C(=O)OCC(Cl)(Cl)Cl)C/C1=C\c1ccccc1`, the TGI in [1] was 2.79 µM; in [2] it was 12.1 µM; in experiment [3], 11.9 µM; in experiment [4], 5.91 µM; in experiment [5] it was 23.5 µM; in experiment [6], 2.06 µM. The same compound returned a TGI in experiment [7] of 0.649 µM.
As for `Cc1cccc(CC(C)(C)C)c1NC(=O)C(=O)C(C(=O)c1ccc2ccccc2c1)C1OC(=O)c2ccccc21` (stereo unspecified), the TGI in experiment [1] is 64.1 µM; in experiment [2], 31.1 µM; in experiment [3], 46.9 µM; in experiment [5], 34.2 µM; in [6], 43.9 µM; in experiment [7] it was more than 100 µM.
Consider `CCN1CC2(C)CC[C@@H](OC)C34[C@@H]2[C@H](OC(C)=O)C2(OCO[C@@]25C[C@H](OC)C2C[C@]3(O)[C@@H]5[C@H]2O)[C@H]14`, for which the TGI in experiment [1], in experiment [2], in [3], in experiment [5] and in experiment [6] was more than 100 µM throughout.
As to `C[C@H](NC(=O)CCC(F)(F)F)C(=O)N[C@@H]1C(=O)N(CCO)c2ncccc2-c2ccccc21`, the GI50 in [2], in experiment [3], in experiment [8], in [4], in experiment [5] and in experiment [6] was more than 100 µM in each case. Further, the GI50 in experiment [9] and in experiment [7] was more than 100 µM throughout. Further, the TGI in [2], in experiment [3], in experiment [8], in experiment [4], in [5] and in [6] was more than 100 µM each time. The TGI in experiment [9] and in experiment [7] was more than 100 µM in each case.
As to `CCNC(=O)Oc1ccc(/C(=C(\C)c2ccc(Cl)cc2)c2ccc(OCCN3CCCCC3)cc2)cc1`, the GI50 in experiment [2] was 2.05 µM; in experiment [3], 4.77 µM; in [8] it was 10.9 µM; in [4] it was 2.34 µM; in experiment [5] it was 5.49 µM; in [6], 1.93 µM. Besides, the GI50 was 1.34 µM in experiment [9] and 2.31 µM in [7]. Besides, the TGI was 5.45 µM in [2]; 16.2 µM in experiment [3]; 23.7 µM in experiment [8]; 5.96 µM in experiment [4]; 19.2 µM in [5]; 3.94 µM in [6]. Also, the values for the TGI in [9] and in experiment [7] were 10.2 µM and 5.27 µM, respectively.
`CN(C)c1ccc(Sc2ccc3nc(N)nc(N)c3c2)cc1`: the GI50 in [2] is 1.12 µM; in experiment [3], 1.2 µM; in experiment [8] it was 0.793 µM; in [4], 0.142 µM; in experiment [5], 3.84 µM; in [6], 0.3 µM. Also, the figures for the GI50 in experiment [9] and in experiment [7] were 1.66 µM and 2.92 µM, respectively. Besides, the TGI in [2] stood at 13.6 µM; in experiment [3] it was 17.7 µM; in experiment [8], 12.1 µM; in [4], 4.55 µM; in experiment [5] it was 16.1 µM; in experiment [6], 13.6 µM. For the same compound, the TGI in [9] came to 4.82 µM; in experiment [7], 10.9 µM.
`O=c1[nH]c2cc(O)ccc2n2cc3c(F)cccc3c12`: the GI50 in experiment [2] was 0.995 µM; in experiment [3], 3.33 µM; in experiment [8], 6.78 µM; in experiment [4], 0.547 µM; in [5] it was more than 21.2 µM; in experiment [6] it was 0.748 µM. Also, the GI50 in experiment [9] was more than 100 µM; in [7], 4.38 µM. In addition, the TGI in experiment [2], in [3], in experiment [8], in experiment [4], in experiment [5] and in [6] was more than 100 µM each time. The TGI in experiment [9] and in experiment [7] was more than 100 µM in each case.
For the compound `N#Cc1ccc(N2Cc3cc(Cl)ccc3OC3=C2C(=O)N(Cc2ccccc2)C3=O)cc1`, the GI50 in experiment [2] is 1.32 µM; in experiment [3], 3.32 µM; in experiment [8], 1.48 µM; in experiment [4] it was 0.359 µM; in experiment [5] it was 2.08 µM; in [6], 1.47 µM. The GI50 in [9] was 0.714 µM; in [7], 0.28 µM. Further, the TGI in experiment [2] stood at 2.61 µM; in experiment [3] it was 11.7 µM; in experiment [8] it was 2.82 µM; in experiment [4], 2.02 µM; in experiment [5], 4.51 µM; in experiment [6], 2.85 µM. Also, the TGI is 2.58 µM in experiment [9] and 1.06 µM in experiment [7].
On to `Cc1cccc(N2C(=O)/C(=C/c3ccc(N(CCC#N)CCC#N)cc3C)N=C2c2cc([N+](=O)[O-])ccc2Cl)c1`, for which the TGI in [1], in experiment [2], in [3], in experiment [4], in experiment [5] and in experiment [7] was more than 100 µM each time.
Regarding `CCC1(N2C(=O)c3c(F)c(F)c(F)c(F)c3C2=O)C(=O)NC(=O)N(c2ccccc2)C1=O` (stereo unspecified), the GI50 in experiment [2] was 17.1 µM; in experiment [3] it was 3.93 µM; in experiment [8], 4.87 µM; in experiment [4], 2.31 µM; in experiment [5], 3.84 µM; in experiment [6], 1.18 µM. In addition, the GI50 in experiment [9] is 2.2 µM; in experiment [7], 0.331 µM. Further, the TGI in experiment [2] was 63.7 µM; in experiment [3], 16.9 µM; in [8], 17.9 µM; in experiment [4] it was 5.23 µM; in experiment [5] it was more than 100 µM; in experiment [6] it was 2.73 µM. For the same compound, the TGI in experiment [9] came out at 4.72 µM; in [7], 2.58 µM.
As for `C#Cc1cccc(Nc2ncnc3ccc(-c4cncc(NS(C)(=O)=O)c4)cc23)c1`, the GI50 in experiment [2] was 1.53 µM; in experiment [3] it was 1.98 µM; in experiment [8], 2.07 µM; in experiment [4] it was 3.79 µM; in experiment [5] it was 0.845 µM; in experiment [6], 1.26 µM. For the same compound, the figures for the GI50 in [9] and in [7] were 0.209 µM and 2.18 µM, respectively. The TGI was 14.5 µM in experiment [2]; 16.2 µM in experiment [3]; 12.8 µM in experiment [8]; 19.5 µM in experiment [4]; 2.2 µM in [5]; 2.86 µM in [6]. Also, the TGI in [9] was determined as 2.77 µM; in [7], 4.93 µM.
